Reference: ChEMBL document CHEMBL5113525, “Discovery of the Novel 1H-Pyrrolo[2,3-b]pyridine Derivative as a Potent Type II CDK8 Inhibitor against Colorectal Cancer” (J Med Chem, 2022)
The source made the active and inactive calls. The rule behind the calls is not given here.

Columns and labels:
[1] = molecular target: Cyclin-dependent kinase 8 (Mus musculus) (UniProt Q8R3L8); test: Inhibition of CDK8 in mouse BMDC cells assessed as reduction in IFNgamma-induced STAT1 phosphorylation at S727 residue pretreated with IFNgamma for 2 hrs followed by compound treatment for 24 hrs by Western blot assay; assay type: cell-based
[2] = molecular target: Catenin beta-1 (Homo sapiens) (UniProt P35222); test: Inhibition of beta-catenin in human HCT-116 cells assessed as accumulation in cytoplasm incubated for 24 hrs by DAPI staining based immunofluorescence assay; assay type: cell-based
[3] = Tmax in Sprague-Dawley rat at 10 mg/kg, po measured upto 12 hrs by LC-MS/MS analysis; assay type: ADME, organism-based; settings: in vivo
[4] = Cmax in Sprague-Dawley rat at 10 mg/kg, po measured upto 12 hrs by LC-MS/MS analysis; assay type: ADME, organism-based; design: time < 12 hrs, dose 10 mg/kg, route po; settings: in vivo
[5] = Cmax in Sprague-Dawley rat at 5 mg/kg, iv measured upto 12 hrs by LC-MS/MS analysis; assay type: ADME, organism-based; design: dose 5 mg/kg, time < 12 hrs, route iv; settings: in vivo
[6] = AUC(0 to infinity) in Sprague-Dawley rat at 10 mg/kg, po measured upto 12 hrs by LC-MS/MS analysis; assay type: ADME, organism-based; design: dose 10 mg/kg, time < 12 hrs, route po; settings: in vivo
[7] = AUC(0 to infinity) in Sprague-Dawley rat at 5 mg/kg, iv measured upto 12 hrs by LC-MS/MS analysis; assay type: ADME, organism-based; design: time < 12 hrs, dose 5 mg/kg, route iv; settings: in vivo
[8] = Clearance in Sprague-Dawley rat at 5 mg/kg, iv measured upto 12 hrs by LC-MS/MS analysis; assay type: ADME, organism-based; settings: in vivo
[9] = Oral bioavailability in Sprague-Dawley rat at 10 mg/kg measured upto 12 hrs by LC-MS/MS analysis; assay type: ADME, organism-based; settings: in vivo
[10] = molecular target: Aurora kinase B (Homo sapiens) (UniProt Q96GD4); test: Inhibition of human Aurora B at 1 uM relative to control
[11] = molecular target: Aurora kinase C (Homo sapiens) (UniProt Q9UQB9); test: Inhibition of human Aurora C at 1 uM relative to control
[12] = molecular target: Tyrosine-protein kinase receptor UFO (Homo sapiens) (UniProt P30530); test: Inhibition of human AXL at 1 uM relative to control
[13] = molecular target: Serine/threonine-protein kinase B-raf (Homo sapiens) (UniProt P15056); test: Inhibition of human BRAF at 1 uM relative to control
[14] = molecular target: Dual specificity protein kinase CLK1 (Homo sapiens) (UniProt P49759); test: Inhibition of human CLK1 at 1 uM relative to control
[15] = molecular target: Citron Rho-interacting kinase (Homo sapiens) (UniProt O14578); test: Inhibition of human CRIK at 1 uM relative to control
[16] = molecular target: Epithelial discoidin domain-containing receptor 1 (Homo sapiens) (UniProt Q08345); test: Inhibition of human DDR1 at 1 uM relative to control
[17] = molecular target: Discoidin domain-containing receptor 2 (Homo sapiens) (UniProt Q16832); test: Inhibition of human DDR2 at 1 uM relative to control
[18] = molecular target: Fibroblast growth factor receptor 1 (Homo sapiens) (UniProt P11362); test: Inhibition of human FGFR1 at 1 uM relative to control
[19] = molecular target: Fibroblast growth factor receptor 2 (Homo sapiens) (UniProt P21802); test: Inhibition of human FGFR2 at 1 uM relative to control
[20] = molecular target: Fibroblast growth factor receptor 4 (Homo sapiens) (UniProt P22455); test: Inhibition of human FGFR4 at 1 uM relative to control
[21] = molecular target: Receptor-type tyrosine-protein kinase FLT3 (Homo sapiens) (UniProt P36888); test: Inhibition of human FLT3 at 1 uM relative to control
[22] = molecular target: Glycogen synthase kinase-3 alpha (Homo sapiens) (UniProt P49840); test: Inhibition of human GSK3A at 1 uM relative to control
[23] = molecular target: Glycogen synthase kinase-3 beta (Homo sapiens) (UniProt P49841); test: Inhibition of human GSK3B at 1 uM relative to control
[24] = molecular target: Tyrosine-protein kinase JAK1 (Homo sapiens) (UniProt P23458); test: Inhibition of human JAK1 at 1 uM relative to control
[25] = molecular target: Tyrosine-protein kinase JAK2 (Homo sapiens) (UniProt O60674); test: Inhibition of human JAK2 at 1 uM relative to control
[26] = molecular target: Mitogen-activated protein kinase 8 (Homo sapiens) (UniProt P45983); test: Inhibition of human JNK1-alpha-1 at 1 uM relative to control
[27] = molecular target: Mitogen-activated protein kinase 8 (Homo sapiens) (UniProt P45983); test: Inhibition of human JNK1-alpha-2 at 1 uM relative to control
[28] = molecular target: Mitogen-activated protein kinase 10 (Homo sapiens) (UniProt P53779); test: Inhibition of human JNK3 at 1 uM relative to control
[29] = molecular target: Tyrosine-protein kinase Lck (Homo sapiens) (UniProt P06239); test: Inhibition of human LCK at 1 uM relative to control
[30] = molecular target: Tyrosine-protein kinase Lyn (Homo sapiens) (UniProt P07948); test: Inhibition of human LYN at 1 uM relative to control
[31] = molecular target: Tyrosine-protein kinase Mer (Homo sapiens) (UniProt Q12866); test: Inhibition of human MER at 1 uM relative to control
[32] = molecular target: Hepatocyte growth factor receptor (Homo sapiens) (UniProt P08581); test: Inhibition of human MET at 1 uM relative to control
[33] = molecular target: Mitogen-activated protein kinase kinase kinase 10 (Homo sapiens) (UniProt Q02779); test: Inhibition of human MLK2 at 1 uM relative to control
[34] = molecular target: Mitogen-activated protein kinase kinase kinase 11 (Homo sapiens) (UniProt Q16584); test: Inhibition of human MLK3 at 1 uM relative to control
[35] = molecular target: Mitogen-activated protein kinase kinase kinase 21 (Homo sapiens) (UniProt Q5TCX8); test: Inhibition of human MLK4 at 1 uM relative to control
[36] = molecular target: MAP kinase-interacting serine/threonine-protein kinase 2 (Homo sapiens) (UniProt Q9HBH9); test: Inhibition of human MNK2 at 1 uM relative to control
[37] = molecular target: Serine/threonine-protein kinase mTOR (Homo sapiens) (UniProt P42345); test: Inhibition of human MTOR at 1 uM relative to control
[38] = molecular target: Serine/threonine-protein kinase PAK 1 (Homo sapiens) (UniProt Q13153); test: Inhibition of human PAK1 at 1 uM relative to control
[39] = molecular target: Serine/threonine-protein kinase pim-1 (Homo sapiens) (UniProt P11309); test: Inhibition of human PIM1 at 1 uM relative to control
[40] = molecular target: Serine/threonine-protein kinase pim-2 (Homo sapiens) (UniProt Q9P1W9); test: Inhibition of human PIM2 at 1 uM relative to control
[41] = molecular target: Serine/threonine-protein kinase pim-3 (Homo sapiens) (UniProt Q86V86); test: Inhibition of human PIM3 at 1 uM relative to control
[42] = molecular target: High affinity nerve growth factor receptor (Homo sapiens) (UniProt P04629); test: Inhibition of human TRKA at 1 uM relative to control
[43] = molecular target: BDNF/NT-3 growth factors receptor (Homo sapiens) (UniProt Q16620); test: Inhibition of human TRKB at 1 uM relative to control

Mitogen-activated protein kinase 8 (Homo sapiens), sequence (P45983 whole entry): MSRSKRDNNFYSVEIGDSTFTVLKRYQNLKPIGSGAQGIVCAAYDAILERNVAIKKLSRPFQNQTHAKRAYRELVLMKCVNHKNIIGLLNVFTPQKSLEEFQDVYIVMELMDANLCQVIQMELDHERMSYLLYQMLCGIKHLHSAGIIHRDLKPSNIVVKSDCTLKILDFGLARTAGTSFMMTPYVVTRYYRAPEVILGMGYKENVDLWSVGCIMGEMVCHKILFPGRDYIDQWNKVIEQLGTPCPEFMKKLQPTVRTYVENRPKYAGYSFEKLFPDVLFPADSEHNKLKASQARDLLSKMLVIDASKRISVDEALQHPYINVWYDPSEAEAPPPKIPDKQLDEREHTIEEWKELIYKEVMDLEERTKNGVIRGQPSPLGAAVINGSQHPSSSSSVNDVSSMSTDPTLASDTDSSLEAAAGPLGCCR
Tyrosine-protein kinase JAK2 (Homo sapiens), sequence (O60674 whole entry): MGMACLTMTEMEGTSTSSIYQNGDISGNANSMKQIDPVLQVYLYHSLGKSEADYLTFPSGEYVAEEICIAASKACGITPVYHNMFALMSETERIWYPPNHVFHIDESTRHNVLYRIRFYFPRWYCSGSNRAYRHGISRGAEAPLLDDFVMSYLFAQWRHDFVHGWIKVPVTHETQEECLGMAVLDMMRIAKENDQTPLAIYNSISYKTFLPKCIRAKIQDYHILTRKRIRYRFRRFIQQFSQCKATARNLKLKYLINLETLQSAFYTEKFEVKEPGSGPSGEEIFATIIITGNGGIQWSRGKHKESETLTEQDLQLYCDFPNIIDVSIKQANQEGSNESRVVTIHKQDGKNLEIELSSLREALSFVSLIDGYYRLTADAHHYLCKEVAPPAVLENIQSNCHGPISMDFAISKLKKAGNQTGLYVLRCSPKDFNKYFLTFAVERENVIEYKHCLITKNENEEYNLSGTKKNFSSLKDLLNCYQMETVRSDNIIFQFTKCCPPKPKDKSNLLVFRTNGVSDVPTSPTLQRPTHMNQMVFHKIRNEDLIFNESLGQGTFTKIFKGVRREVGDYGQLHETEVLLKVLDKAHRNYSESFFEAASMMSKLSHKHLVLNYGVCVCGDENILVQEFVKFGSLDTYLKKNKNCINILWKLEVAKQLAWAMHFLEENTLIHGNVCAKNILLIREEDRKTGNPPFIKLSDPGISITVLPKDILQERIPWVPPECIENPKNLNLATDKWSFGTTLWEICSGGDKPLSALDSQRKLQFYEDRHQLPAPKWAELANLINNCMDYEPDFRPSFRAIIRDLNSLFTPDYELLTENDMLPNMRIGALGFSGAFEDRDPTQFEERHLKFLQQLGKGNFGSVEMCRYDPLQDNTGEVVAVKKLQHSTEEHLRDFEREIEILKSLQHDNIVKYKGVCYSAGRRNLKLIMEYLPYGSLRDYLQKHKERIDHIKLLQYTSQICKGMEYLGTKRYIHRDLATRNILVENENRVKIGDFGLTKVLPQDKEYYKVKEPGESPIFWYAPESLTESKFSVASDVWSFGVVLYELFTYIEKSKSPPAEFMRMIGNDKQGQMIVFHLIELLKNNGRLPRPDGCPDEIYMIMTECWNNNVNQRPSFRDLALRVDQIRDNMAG
Mitogen-activated protein kinase kinase kinase 10 (Homo sapiens), sequence (Q02779 whole entry, looked up): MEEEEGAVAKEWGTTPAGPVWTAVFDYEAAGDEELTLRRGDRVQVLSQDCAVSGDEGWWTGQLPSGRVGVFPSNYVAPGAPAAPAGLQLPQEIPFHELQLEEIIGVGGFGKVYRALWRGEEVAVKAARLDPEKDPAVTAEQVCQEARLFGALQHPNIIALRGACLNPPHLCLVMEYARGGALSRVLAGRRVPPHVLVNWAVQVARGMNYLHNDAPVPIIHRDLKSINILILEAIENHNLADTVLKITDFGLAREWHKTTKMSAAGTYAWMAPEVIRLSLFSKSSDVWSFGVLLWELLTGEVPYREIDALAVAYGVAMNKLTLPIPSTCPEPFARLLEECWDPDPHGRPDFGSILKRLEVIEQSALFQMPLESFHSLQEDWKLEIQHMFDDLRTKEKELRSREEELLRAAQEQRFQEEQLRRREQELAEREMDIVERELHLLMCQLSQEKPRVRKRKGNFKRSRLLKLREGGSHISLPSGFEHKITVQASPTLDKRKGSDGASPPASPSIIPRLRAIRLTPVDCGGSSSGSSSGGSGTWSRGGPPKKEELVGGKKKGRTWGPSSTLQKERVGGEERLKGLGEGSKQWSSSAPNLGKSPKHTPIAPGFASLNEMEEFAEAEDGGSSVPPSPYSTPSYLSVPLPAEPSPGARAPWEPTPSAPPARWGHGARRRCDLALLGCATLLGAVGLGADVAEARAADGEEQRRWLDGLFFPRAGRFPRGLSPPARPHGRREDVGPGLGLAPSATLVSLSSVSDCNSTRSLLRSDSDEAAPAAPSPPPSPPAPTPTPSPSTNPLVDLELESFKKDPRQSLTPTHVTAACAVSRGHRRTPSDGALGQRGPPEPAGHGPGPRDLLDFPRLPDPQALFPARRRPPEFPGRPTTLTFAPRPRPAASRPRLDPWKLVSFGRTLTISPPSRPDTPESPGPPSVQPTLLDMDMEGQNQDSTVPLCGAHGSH
Tyrosine-protein kinase receptor UFO (Homo sapiens), sequence (P30530 whole entry): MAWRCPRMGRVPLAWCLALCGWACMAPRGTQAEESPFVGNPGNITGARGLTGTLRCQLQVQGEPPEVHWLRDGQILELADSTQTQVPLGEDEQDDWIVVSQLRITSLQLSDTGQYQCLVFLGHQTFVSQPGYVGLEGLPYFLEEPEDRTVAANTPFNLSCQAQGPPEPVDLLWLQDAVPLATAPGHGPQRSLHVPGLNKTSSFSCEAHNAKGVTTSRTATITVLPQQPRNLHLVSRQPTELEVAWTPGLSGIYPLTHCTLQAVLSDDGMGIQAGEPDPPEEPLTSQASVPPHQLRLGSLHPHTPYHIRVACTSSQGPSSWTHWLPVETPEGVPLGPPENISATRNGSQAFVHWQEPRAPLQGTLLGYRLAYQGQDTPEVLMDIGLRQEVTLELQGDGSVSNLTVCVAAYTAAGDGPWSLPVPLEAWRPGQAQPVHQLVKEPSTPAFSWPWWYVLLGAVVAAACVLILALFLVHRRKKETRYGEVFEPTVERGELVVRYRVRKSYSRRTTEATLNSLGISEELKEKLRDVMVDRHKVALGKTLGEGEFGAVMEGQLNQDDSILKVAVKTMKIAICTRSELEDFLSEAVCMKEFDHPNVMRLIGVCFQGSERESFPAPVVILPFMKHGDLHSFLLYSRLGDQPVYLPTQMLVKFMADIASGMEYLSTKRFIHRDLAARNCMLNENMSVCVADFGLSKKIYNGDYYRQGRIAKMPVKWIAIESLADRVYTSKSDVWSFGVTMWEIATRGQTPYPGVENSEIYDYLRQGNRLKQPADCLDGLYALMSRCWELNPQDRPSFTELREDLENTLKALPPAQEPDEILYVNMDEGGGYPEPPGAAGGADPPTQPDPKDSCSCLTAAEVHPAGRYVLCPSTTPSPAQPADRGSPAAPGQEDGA
Aurora kinase C (Homo sapiens), sequence (Q9UQB9 whole entry): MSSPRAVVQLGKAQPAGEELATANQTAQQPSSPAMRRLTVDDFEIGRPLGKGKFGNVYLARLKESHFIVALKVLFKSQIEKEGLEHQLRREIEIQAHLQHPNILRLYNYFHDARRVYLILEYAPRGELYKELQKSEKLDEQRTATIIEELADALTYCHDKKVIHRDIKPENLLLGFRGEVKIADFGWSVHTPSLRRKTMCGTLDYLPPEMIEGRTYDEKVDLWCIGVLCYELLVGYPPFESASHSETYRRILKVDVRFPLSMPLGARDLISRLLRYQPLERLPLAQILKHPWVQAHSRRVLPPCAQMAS
Fibroblast growth factor receptor 1 (Homo sapiens), sequence (P11362 22-822 limits assumed): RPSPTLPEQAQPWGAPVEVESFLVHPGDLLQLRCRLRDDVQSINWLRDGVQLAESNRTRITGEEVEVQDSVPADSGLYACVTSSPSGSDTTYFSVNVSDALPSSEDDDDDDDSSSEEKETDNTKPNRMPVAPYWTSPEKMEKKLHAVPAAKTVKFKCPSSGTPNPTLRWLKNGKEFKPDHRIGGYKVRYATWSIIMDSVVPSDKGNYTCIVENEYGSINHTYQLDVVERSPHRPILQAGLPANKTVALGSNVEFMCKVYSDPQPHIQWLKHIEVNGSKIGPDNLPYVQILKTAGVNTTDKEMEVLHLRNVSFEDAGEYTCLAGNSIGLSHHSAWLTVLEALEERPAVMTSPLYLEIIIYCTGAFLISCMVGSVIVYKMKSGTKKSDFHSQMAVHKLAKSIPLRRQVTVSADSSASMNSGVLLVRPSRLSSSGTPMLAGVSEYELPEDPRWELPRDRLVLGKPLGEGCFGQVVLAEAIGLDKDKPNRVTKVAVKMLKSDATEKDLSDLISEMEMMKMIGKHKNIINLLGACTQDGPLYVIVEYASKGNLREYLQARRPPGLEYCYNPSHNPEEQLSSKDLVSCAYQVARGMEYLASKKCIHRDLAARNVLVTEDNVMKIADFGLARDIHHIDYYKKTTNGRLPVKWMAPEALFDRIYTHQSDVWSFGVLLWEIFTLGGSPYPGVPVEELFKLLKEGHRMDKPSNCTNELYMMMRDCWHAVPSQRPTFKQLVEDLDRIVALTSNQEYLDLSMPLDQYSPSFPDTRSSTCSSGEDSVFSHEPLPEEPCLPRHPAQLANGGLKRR
Dual specificity protein kinase CLK1 (Homo sapiens), sequence (P49759 whole entry, looked up): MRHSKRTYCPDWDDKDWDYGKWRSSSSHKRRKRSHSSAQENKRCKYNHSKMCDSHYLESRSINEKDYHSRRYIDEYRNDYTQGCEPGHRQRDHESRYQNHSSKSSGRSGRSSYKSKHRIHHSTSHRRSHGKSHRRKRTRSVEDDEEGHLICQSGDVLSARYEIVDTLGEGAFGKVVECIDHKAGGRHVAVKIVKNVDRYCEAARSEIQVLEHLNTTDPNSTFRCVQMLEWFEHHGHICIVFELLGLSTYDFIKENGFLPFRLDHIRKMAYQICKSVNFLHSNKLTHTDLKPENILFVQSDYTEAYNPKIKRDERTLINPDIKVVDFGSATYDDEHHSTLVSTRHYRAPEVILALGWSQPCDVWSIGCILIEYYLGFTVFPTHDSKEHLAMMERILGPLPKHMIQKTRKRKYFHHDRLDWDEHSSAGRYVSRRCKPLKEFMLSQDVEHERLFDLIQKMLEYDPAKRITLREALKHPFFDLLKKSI

## Cc1ccc(NC(=O)CCc2cccc(-c3cnc4[nH]ccc4c3)c2)cc1C(F)(F)F
[1]
  inhibition: Active
[2]
  inhibition: Active
[3]
  Tmax: 45 min
[4]
  Cmax: 498 ng/mL
[5]
  Cmax: 706 ng/mL
[6]
  AUC(0-inf): 784 ng·h/mL
[7]
  AUC: 983.09 ng·h/mL
[8]
  CL: 188.7 mL/min/kg
[9]
  bioavailability: 39.8%
[10]
  inhibition: 43%
[11]
  inhibition: 8%
[12]
  inhibition: 38%
[13]
  inhibition: 15%
[14]
  inhibition: 10%
[15]
  inhibition: 1%
[16]
  inhibition: 36%
[17]
  inhibition: 23%
[18]
  inhibition: 0%
[19]
  inhibition: 0%
[20]
  inhibition: 0%
[21]
  inhibition: 48%
[22]
  inhibition: 6%
[23]
  inhibition: 0%
[24]
  inhibition: 9%
[25]
  inhibition: 10%
[26]
  inhibition: 2%
[27]
  inhibition: 0%
[28]
  inhibition: 8%
[29]
  inhibition: 0%
[30]
  inhibition: 0%
[31]
  inhibition: 30%
[32]
  inhibition: 0%
[33]
  inhibition: 5%
[34]
  inhibition: 0%
[35]
  inhibition: 0%
[36]
  inhibition: 10%
[37]
  inhibition: 5%
[38]
  inhibition: 0%
[39]
  inhibition: 0%
[40]
  inhibition: 0%
[41]
  inhibition: 4%
[42]
  inhibition: 25%
[43]
  inhibition: 24%
